Results taken from US10035808B1, “Isatin peroxo compounds with antibacterial activities and a method of preparing the same” (SHAANXI UNIVERSITY OF SCIENCE AND TECHNOLOGY, priority 2018, dated 2018).

Legend:
[1] = test system: Enteropathogenic Escherichia coli (EPEC); assay: Bacteriostatic circle test, EPEC; assay type: cell-based; settings: bacteriostatic circle method; strain EPEC; DMSO negative control
Experimental: (§1) The compounds of the present invention have been tested for antibacterial activity, and a bacteriostatic circle method was used to determine the antibacterial activity.
(§2) Test strains and medium: Enteropathogenic Escherichia coli (EPEC), Enterotoxigenic Escherichia coli (ETEC), Enteroinvasive Escherichia coli (EIEC), Enterohemorrhagic Escherichia coli (EHEC); beef peptone medium.
(§3) Preparation of test strains: (1) test strains were placed in culture medium in test tubes in an incubator (bacteria: 37° C., 24 hours; fungi: 28° C., 48 hours), and stored at 0-4° C.; (2) the test strains were inoculated with a small loop in test tubes containing 9 mL sterile water, mixing well to make suspensions, and adjusting the concentration to 10^6-10^7 cfu·mL^−1. The suspensions were used for bacteriostatic circle test.
(§4) Antibacterial activity determination: solvent dimethyl sulfoxide (DMSO) was used as a negative control, the sizes of antibacterial ring diameters indicated the strength of the antibacterial activities.

[2] = test system: Enterohemorrhagic Escherichia coli (EHEC); assay: Bacteriostatic circle test, EHEC; assay type: cell-based; settings: bacteriostatic circle method; strain EHEC; DMSO negative control
Experimental: as §1, §2, §3, §4

[3] = test system: Enteroinvasive Escherichia coli (EIEC); assay: Bacteriostatic circle test, EIEC; assay type: cell-based; settings: bacteriostatic circle method; strain EIEC; DMSO negative control
Experimental: as §1, §2, §3, §4

[4] = test system: Enterotoxigenic Escherichia coli (ETEC); assay: Bacteriostatic circle test, ETEC; assay type: cell-based; settings: bacteriostatic circle method; strain ETEC; DMSO negative control
Experimental: as §1, §2, §3, §4

[5] = test system: all the four tested bacteria (EPEC, ETEC, EIEC, EHEC); assay: Bacteriostatic circle test, summary over all four tested bacteria; assay type: cell-based, Escherichia coli
Experimental: as §1, §2, §3, §4

SMILES | Circle Size [1] | Circle Size [2] | Circle Size [3] | Circle Size [4] | antibacterial activities (result in words) [5]
O=C(C1=C(c2ccccc2)OOc2[nH]c3ccc(Cl)cc3c21)c1ccccc1 [Compound 5, (6-chloro-3-phenyl-9H-[1,2]dioxino[3,4-b]indol-4-yl)(phenyl)methanone] | 13 mm | 14.5 mm | 14 mm | 13.5 mm | –
CC(=O)C1=C(C)OOc2[nH]c3ccc(F)cc3c21 [Compound 7, 1-(6-fluoro-3-methyl-9H-[1,2]dioxino[3,4-b]indol-4-yl)ethanone] | 17 mm | 17 mm | 16.5 mm | 17.5 mm | –
CC(=O)C1=C(C)OOc2[nH]c3c(F)cccc3c21 [Compound 9, 1-(8-fluoro-3-methyl-9H-[1,2]dioxino[3,4-b]indol-4-yl)ethanone] | 15 mm | 14.5 mm | 14 mm | 15.5 mm | –
Cc1ccc2[nH]c3c(c2c1)C(C(=O)c1ccccc1)=C(c1ccccc1)OO3 [Compound 6, (6-methyl-3-phenyl-9H-[1,2]dioxino[3,4-b]indol-4-yl)(phenyl)methanone] | 15 mm | 16 mm | 16 mm | 15.5 mm | –
CC(=O)C1=C(C)OOc2[nH]c3ccc(Cl)cc3c21 [Compound 2, 1-(6-chloro-3-methyl-9H-[1,2]dioxino[3,4-b]indol-4-yl)ethanone] | 15 mm | 16.5 mm | 17 mm | 15.5 mm | good antibacterial activities
O=C(C1=C(c2ccccc2)OOc2[nH]c3c(F)cccc3c21)c1ccccc1 [Compound 12, (8-fluoro-3-phenyl-9H-[1,2]dioxino[3,4-b]indol-4-yl)(phenyl)methanon] | 14 mm | 15 mm | 14.5 mm | – | –
CC(=O)C1=C(C)OOc2[nH]c3ccccc3c21 [Compound 1, 1-(3-methyl-9H-[1,2]dioxino[3,4-b]indol-4-yl)ethanone] | 20 mm | 23 mm | 21 mm | 19 mm | good antibacterial activities
CC(=O)C1=C(C)OOc2[nH]c3ccc(C)cc3c21 [Compound 3, 1-(3,6-dimethyl-9H-[1,2]dioxino[3,4-b]indol-4-yl)ethanone] | 17.5 mm | 17 mm | 17 mm | 18 mm | good antibacterial activities
O=C(C1=C(c2ccccc2)OOc2[nH]c3ccccc3c21)c1ccccc1 [Compound 4, phenyl(3-phenyl-9H-[1,2]dioxino[3,4-b]indol-4-yl)methanone] | 12 mm | 12.5 mm | 11.5 mm | 11 mm | –
O=C(C1=C(c2ccccc2)OOc2[nH]c3cc(Cl)ccc3c21)c1ccccc1 [Compound 11, (7-chloro-3-phenyl-9H-[1,2]dioxino[3,4-b]indol-4-yl)(phenyl)methanone] | 12 mm | 11.5 mm | 11.5 mm | 12.5 mm | –
O=C(C1=C(c2ccccc2)OOc2[nH]c3ccc(F)cc3c21)c1ccccc1 [Compound 10, (6-fluoro-3-phenyl-9H-[1,2]dioxino[3,4-b]indol-4-yl)(phenyl)methanone] | 10 mm | 10.5 mm | 11.5 mm | 11 mm | –
CC(=O)C1=C(C)OOc2[nH]c3cc(Cl)ccc3c21 [Compound 8, 1-(7-chloro-3-methyl-9H-[1,2]dioxino[3,4-b]indol-4-yl)ethanone] | 13 mm | 13 mm | 13.5 mm | 14 mm | –
